{"source": "ChEMBL document CHEMBL5154820", "about": "(Eur J Med Chem, 2022)", "key": {"[1]": {"experiment": "Acute toxicity against ICR mouse assessed as glycogen deposition in liver at 1000 mg/kg, ip measured after 14 days by H and E staining method", "type": "organism-based", "details": "in vivo, 336 h, time 14 day"}, "Tubulin (Homo sapiens) [2]": {"molecular_target": "T1, Tubulin (Homo sapiens) (UniProt P68371+Q9H4B7+P0DPH7+P68366+Q13509+Q71U36+P04350+Q3ZCM7+P07437+P68363+Q9BQE3+Q6PEY2+Q13885+Q9BVA1+Q9BUF5)", "experiment": "Induction of microtubule disruption in human HeLa cells assessed as loss of cellular structure at 0.1 to 0.2 uM measured after 24 hrs by DAPI staining based laser scanning confocal microscopic analysis", "type": "cell-based", "details": "dose 0.1-0.2 µM, DDE = dose-dependent effect"}, "[3]": {"experiment": "Toxicity against BABL/c mouse assessed as morphological changes in heart at 30 to 60 mg/kg, ip administered daily for 21 days by H and E staining method", "type": "organism-based", "details": "in vivo, 504 h, dose 30-60 mg/kg, time 21 day"}, "[4]": {"experiment": "Nephrotoxicity in BABL/c mouse assessed as increased uric acid level at 60 mg/kg, ip administered daily for 21 days relative to vehicle", "type": "toxicity, organism-based", "details": "in vivo, 504 h, time 21 day"}, "HeLa [5]": {"test_system": "HeLa", "experiment": "Induction of cell cycle arrest in human HeLa cells assessed as 2N cells at 0.4 uM measured after 24 hrs by propidium iodide staining based flow cytometric analysis analysis ( Rvb = 47.4%)", "type": "functional"}, "[6]": {"experiment": "Nephrotoxicity in BABL/c mouse assessed as increased creatinine level at 30 mg/kg, ip administered daily for 21 days followed by addition of 3 mg/kg DDP for every 2 days relative to vehicle", "type": "toxicity, organism-based", "details": "in vivo, 504 h, time 21 day"}, "Tubulin (Homo sapiens) [7]": {"molecular_target": "T1, Tubulin (Homo sapiens)", "experiment": "Induction of microtubule disruption in human HeLa cells assessed as loss of formation of cell membrane rounding at 0.1 to 0.2 uM measured after 24 hrs by DAPI staining based laser scanning confocal microscopic analysis", "details": "dose 0.1-0.2 µM, DDE = dose-dependent effect"}, "HeLa [8]": {"test_system": "HeLa", "experiment": "Induction of cell cycle arrest in human HeLa cells assessed as S-phase at 0.2 uM measured after 24 hrs by propidium iodide staining based flow cytometric analysis analysis ( Rvb = 15.5%)", "type": "functional"}, "[9]": {"experiment": "Nephrotoxicity in BABL/c mouse assessed as increased uric acid level at 30 mg/kg, ip administered daily for 21 days relative to vehicle", "type": "toxicity, organism-based", "details": "in vivo, 504 h, time 21 day"}, "HeLa [10]": {"test_system": "HeLa", "experiment": "Induction of cell cycle arrest in human HeLa cells assessed as 4N cells at 0.2 uM measured after 24 hrs by propidium iodide staining based flow cytometric analysis analysis ( Rvb = 20.3%)", "type": "functional"}, "Tubulin (Sus scrofa)": {"molecular_target": "Tubulin (Sus scrofa) (UniProt P02554+P02550)", "sequence (P02550 whole entry, looked up)": "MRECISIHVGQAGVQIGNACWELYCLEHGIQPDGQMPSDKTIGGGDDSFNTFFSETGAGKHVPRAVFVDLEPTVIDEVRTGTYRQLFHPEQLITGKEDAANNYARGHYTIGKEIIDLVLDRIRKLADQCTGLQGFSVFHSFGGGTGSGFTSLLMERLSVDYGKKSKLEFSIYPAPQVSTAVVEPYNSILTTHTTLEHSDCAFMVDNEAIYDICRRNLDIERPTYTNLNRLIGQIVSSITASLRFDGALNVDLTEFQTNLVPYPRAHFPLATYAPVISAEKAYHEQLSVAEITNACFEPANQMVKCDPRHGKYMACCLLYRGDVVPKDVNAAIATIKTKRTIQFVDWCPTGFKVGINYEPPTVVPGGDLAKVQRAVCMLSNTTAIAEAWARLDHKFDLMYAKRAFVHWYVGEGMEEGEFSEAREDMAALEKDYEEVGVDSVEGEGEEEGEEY", "sequence (P02554 whole entry, looked up)": "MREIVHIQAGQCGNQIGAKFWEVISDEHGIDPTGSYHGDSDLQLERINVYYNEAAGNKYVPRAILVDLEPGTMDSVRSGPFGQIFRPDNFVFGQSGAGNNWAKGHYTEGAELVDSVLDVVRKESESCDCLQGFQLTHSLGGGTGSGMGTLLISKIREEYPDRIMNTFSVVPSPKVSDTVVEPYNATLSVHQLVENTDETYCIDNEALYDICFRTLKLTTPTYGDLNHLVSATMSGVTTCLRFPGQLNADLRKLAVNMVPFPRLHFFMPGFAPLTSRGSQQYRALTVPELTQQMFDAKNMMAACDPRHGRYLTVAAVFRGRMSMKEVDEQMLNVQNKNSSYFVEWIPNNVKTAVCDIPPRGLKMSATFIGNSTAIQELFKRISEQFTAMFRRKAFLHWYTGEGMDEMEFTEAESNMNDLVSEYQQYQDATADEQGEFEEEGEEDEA", "experiment": "Inhibition of pig brain tubulin polymerization at 6 uM by spectrophotometer analysis relative to control", "parameters": "scale not given: the % may be the effect or the level left", "details": "Sus scrofa domesticus"}, "HeLa [11]": {"test_system": "HeLa", "experiment": "Antitumor activity against human HeLa cells xenografted in BABL/c mouse assessed as tumor growth inhibition at 30 mg/kg, ip administered daily for 21 days followed by addition of 3 mg/kg DDP for every 2 days relative to control", "type": "functional", "details": "504 h, time 21 day, read-out: TGI"}, "HeLa [12]": {"test_system": "HeLa", "experiment": "Antitumour activity against human HeLa cells xenografted in BABL/c mouse assessed as reduction in tumor weight at 30 mg/kg, ip administered daily for 21 days followed by addition of 3 mg/kg DDP for every 2 days ( Rvb = 3.36 g)", "type": "functional", "details": "time 21 day, 504 h"}, "HeLa [13]": {"test_system": "HeLa", "experiment": "Induction of apoptosis in human HeLa cells assessed as necrotic cells at 0.1 uM measured after 24 hrs by Annexin V-FITC/7-AAD staining based flow cytometric analysis (reference value: 0.56%)", "type": "functional"}, "HeLa [14]": {"test_system": "HeLa", "experiment": "Inhibition of colony formation in human HeLa cells at 50 nM and treated for every 48 hrs with fresh medium measured after 14 days by crystal violet staining method ( Rvb = 67.3%)", "type": "functional", "parameters": "scale not given: the % may be the effect or the level left", "details": "time 14 day"}, "HeLa [15]": {"test_system": "HeLa", "experiment": "Induction of cell cycle arrest in human HeLa cells assessed as 4N cells at 0.4 uM measured after 24 hrs by propidium iodide staining based flow cytometric analysis analysis ( Rvb = 20.3%)", "type": "functional"}, "HeLa [16]": {"test_system": "HeLa", "experiment": "Antitumor activity against human HeLa cells xenografted in BABL/c mouse assessed assessed as reduction in tumor volume at 30 mg/kg, ip administered daily for 21 days and measured every 3 days ( Rvb = 2336 mm3)", "type": "functional", "details": "time 21 day"}, "[17]": {"experiment": "Acute toxicity against ICR mouse assessed as morphological changes in lung at 1000 mg/kg, ip measured after 14 days by H and E staining method", "type": "organism-based", "details": "in vivo, 336 h, time 14 day"}, "[18]": {"experiment": "Cmax in C57 nude mouse at 30 mg/kg, ip measured at 0.083 to 24 hrs by LC/MS/MS analysis", "type": "ADME, organism-based", "parameters": "dose 30 mg/kg, time 0.083-24 hrs, route ip", "details": "in vivo"}, "HeLa [19]": {"test_system": "HeLa", "experiment": "Antitumor activity against human HeLa cells xenografted in BABL/c mouse assessed as tumor growth inhibition at 30 mg/kg, ip administered daily for 21 days relative to control", "type": "functional", "details": "504 h, time 21 day, read-out: TGI"}, "HeLa [20]": {"test_system": "HeLa", "experiment": "Antimigratory activity against human HeLa cells at 0.1 uM measured after 24 hrs by scratch wound healing based fluorescence inverted microscopic analysis", "type": "functional"}, "Tubulin": {"molecular_target": "Tubulin (Sus scrofa, UniProt P02554+P02550)", "experiment": "Inhibition of pig brain tubulin polymerization by spectrophotometeric analysis", "parameters": "species or system Sus scrofa domesticus"}, "HeLa [21]": {"test_system": "HeLa", "experiment": "Induction of cell cycle arrest in human HeLa cells assessed as S-phase at 6 nM measured after 24 hrs by propidium iodide staining based flow cytometric analysis analysis ( Rvb = 23.4%)", "type": "functional"}, "HeLa [22]": {"test_system": "HeLa", "experiment": "Induction of cell cycle arrest in human HeLa cells assessed as >4N cells at 1.5 nM measured after 24 hrs by propidium iodide staining based flow cytometric analysis analysis relative to control", "type": "functional"}, "HeLa [23]": {"test_system": "HeLa", "experiment": "Induction of cell cycle arrest in human HeLa cells assessed as < 2N cells at 6 nM measured after 24 hrs by propidium iodide staining based flow cytometric analysis analysis ( Rvb = 9.32%)", "type": "functional"}, "HeLa [24]": {"test_system": "HeLa", "experiment": "Induction of apoptosis in human HeLa cells assessed as early apoptotic cells at 3 nM measured after 24 hrs by Annexin V-FITC/7-AAD staining based flow cytometric analysis (reference value: 18.8%)", "type": "functional"}, "Bos taurus": {"organism": "Bos taurus", "experiment": "Inhibition of calf brain tubulin polymerization upto 50 uM measured after 40 mins by spectrophotometric analysis", "details": "DDE = dose-dependent effect"}, "HeLa [25]": {"test_system": "HeLa", "experiment": "Antimigratory activity against human HeLa cells at 6 nM measured after 24 hrs by scratch wound healing based fluorescence inverted microscopic analysis", "type": "functional"}, "HeLa [26]": {"test_system": "HeLa", "experiment": "Induction of apoptosis in human HeLa cells assessed as viable cells at 1.5 nM measured after 24 hrs by Annexin V-FITC/7-AAD staining based flow cytometric analysis (reference value: 75.5%)", "type": "functional", "details": "read-out: Activity"}, "HeLa [27]": {"test_system": "HeLa", "experiment": "Induction of cell cycle arrest in human HeLa cells assessed as S-phase at 1.5 nM measured after 24 hrs by propidium iodide staining based flow cytometric analysis analysis ( Rvb = 23.4%)", "type": "functional"}, "HeLa [28]": {"test_system": "HeLa", "experiment": "Induction of apoptosis in human HeLa cells assessed as late apoptotic cells at 6 nM measured after 24 hrs by Annexin V-FITC/7-AAD staining based flow cytometric analysis (reference value: 5.22%)", "type": "functional"}, "HeLa [29]": {"test_system": "HeLa", "experiment": "Induction of cell cycle arrest in human HeLa cells assessed as S-phase at 3 nM measured after 24 hrs by propidium iodide staining based flow cytometric analysis analysis ( Rvb = 23.4%)", "type": "functional"}, "HeLa [30]": {"test_system": "HeLa", "experiment": "Induction of cell cycle arrest in human HeLa cells assessed as < 2N cells at 3 nM measured after 24 hrs by propidium iodide staining based flow cytometric analysis analysis ( Rvb = 9.32%)", "type": "functional"}}, "data": [{"smiles": "CCOc1ccc(-c2cncnc2-c2cc(OC)c(OC)c(OC)c2)cc1Cl", "values": [{"measurement": "Activity", "setting": "[1]", "value": "Non-Toxic"}, {"measurement": "Activity", "setting": "Tubulin (Homo sapiens) [2]", "value": "Dde"}, {"measurement": "Activity", "setting": "[3]", "value": "Non-Toxic"}, {"measurement": "Activity", "setting": "[4]", "value": 36, "unit": "%"}, {"measurement": "Activity", "setting": "HeLa [5]", "value": 7.03, "unit": "%"}, {"measurement": "Activity", "setting": "[6]", "value": 40, "unit": "%"}, {"measurement": "Activity", "setting": "Tubulin (Homo sapiens) [7]", "value": "Dde"}, {"measurement": "Activity", "setting": "HeLa [8]", "value": 16.6, "unit": "%"}, {"measurement": "Activity", "setting": "[9]", "value": 21, "unit": "%"}, {"measurement": "Activity", "setting": "HeLa [10]", "value": 47.6, "unit": "%"}, {"measurement": "Activity", "setting": "Tubulin (Sus scrofa)", "value": 54, "unit": "%"}, {"measurement": "inhibition in vivo at 30 mg/kg", "setting": "HeLa [11]", "value": 73, "unit": "%"}, {"measurement": "Activity", "setting": "HeLa [12]", "value": 2.18, "unit": "g"}, {"measurement": "Activity", "setting": "HeLa [13]", "value": 0.5, "unit": "%"}, {"measurement": "Activity", "setting": "HeLa [14]", "value": 36.8, "unit": "%"}, {"measurement": "Activity", "setting": "HeLa [15]", "value": 71.7, "unit": "%"}, {"measurement": "Activity", "setting": "HeLa [16]", "value": 1578, "unit": "mm3"}, {"measurement": "Activity", "setting": "[17]", "value": "Non-Toxic"}, {"measurement": "Cmax", "setting": "[18]", "value": 6220, "unit": "ng/mL"}, {"measurement": "inhibition in vivo at 30 mg/kg", "setting": "HeLa [19]", "value": 35, "unit": "%"}, {"measurement": "Activity", "setting": "HeLa [20]", "value": 3, "unit": "%"}, {"measurement": "IC50", "setting": "Tubulin", "value": 4.6, "unit": "µM"}]}, {"smiles": "COc1ccc(/C=C\\c2cc(OC)c(OC)c(OC)c2)cc1O", "note": "[COMBRETASTATIN A4]", "values": [{"measurement": "Activity", "setting": "HeLa [21]", "value": 15.9, "unit": "%"}, {"measurement": "Activity", "setting": "HeLa [22]", "value": 17.9, "unit": "%"}, {"measurement": "Activity", "setting": "HeLa [23]", "value": 16.5, "unit": "%"}, {"measurement": "Activity", "setting": "HeLa [24]", "value": 43.8, "unit": "%"}, {"measurement": "inhibition", "setting": "Bos taurus", "value": "Dde"}, {"measurement": "Activity", "setting": "HeLa [25]", "value": 73, "unit": "%"}, {"measurement": "viability at 0.0015 µM", "setting": "HeLa [26]", "value": 68.9, "unit": "%"}, {"measurement": "Activity", "setting": "HeLa [27]", "value": 12, "unit": "%"}, {"measurement": "Activity", "setting": "HeLa [28]", "value": 5.94, "unit": "%"}, {"measurement": "Activity", "setting": "HeLa [29]", "value": 12.1, "unit": "%"}, {"measurement": "Activity", "setting": "HeLa [30]", "value": 7.77, "unit": "%"}]}]}
